Measured values as given in patent US20100204108A1, “USE OF NEUROTROPHIC FACTOR FOR RETINAL CHOLINERGIC NEURONS (NFRCN) AND CHORIONIC GONADOTROPIN-BETA (109-145) AS THERAPEUTIC AGENTS” (priority 2007, published 2010).
Ends that are not written are not given here.

Assays:
HIV-1IIIB = conditions: positive controls
HUVEC = assay: Endothelial tube formation assay; type: cell-based, human; conditions: 10 micrograms per ml, 20 hours
Description: Positive control was vehicle only.

[1] = tested on: hepatitis B virus (HBV) ayw strain; assay: HBV assay in HepG2-2.2.15 cells, secreted HBV DNA by TaqMan PCR; type: cell-based; conditions: 10 micrograms per ml, six days, HBV DNA in supernatant
[2] = tested on: LPS-induced TNF-alpha production in human macrophages; assay: TNF alpha production assay (LPS-stimulated macrophages, ELISA); type: cell-based; conditions: 10 micrograms per ml; LPS 200 ng/ml; overnight
Description: Not stimulated macrophages served as negative background control.

HCMV strain AD169 = assay: HCMV plaque formation assay in MRC-5 cells; conditions: 10 micrograms per ml, 7-10 days
[3] = tested on: Th1/Th2 cytokines in spleen cells; assay: Th1/Th2 cytokine profiling assay (Ovalbumin-restimulated spleen cells, CBA kit); type: cell-based, Balb/c mice; conditions: 10 micrograms per ml; Ovalbumin restimulation; 72 hours

Compound: Cc1cn([C@H]2C[C@H](N=[N+]=[N-])[C@@H](CO)O2)c(=O)[nH]c1=O [AZT]
- antiviral activity of positive control compounds (HIV-1) (HIV-1IIIB): expected levels of antiviral activity

Compound: CC(C)(C)NC(=O)[C@@H]1CN(Cc2cccnc2)CCN1C[C@@H](O)C[C@@H](Cc1ccccc1)C(=O)N[C@H]1c2ccccc2C[C@H]1O [indinavir]
- antiviral activity of positive control compounds (HIV-1) (HIV-1IIIB): expected levels of antiviral activity

Compound: Tyr-Leu-Leu-Pro-Ala-Gln-Val-Asn-Ile-Asp-OH (YLLPAQVNID-OH) [peptide 1]
- inhibition of the tube formation of endothelial cells (HUVEC): 25%
- inhibition of HBV replication as compared to the virus control infection [1]: 65.0%
- induction of the LPS-induced TNF-alpha production in human macrophages [2]: 18%
- inhibition of HCMV plaque formation as compared to the virus control (HCMV strain AD169): did not inhibit
- IFNγ spleen cells; TH1 response (% of control) [3]: 135.2 % of control
- IL-2 spleen cells (% of control) [3]: 215.4 % of control
- IL-4 spleen cells; TH2 response (% of control) [3]: 138.4 % of control
- IL-5 spleen cells; TH2 response (% of control) [3]: 111.1 % of control
- TNF-a spleen cells; TH1 response (% of control) [3]: 165.0 % of control
